Source: ChEMBL document CHEMBL3137667, “[Drug-induced liver injury; fourteenth updated edition of the bibliographic database of liver injuries and related drugs]” (Gastroenterol Clin Biol, 2004)

Key:
[1] = human, serum
[2] = Highest frequency of acute liver toxicity observed during clinical trials, expressed as a percentage. [column '% AIGUE' in source]; details: human
[3] = human
[4] = human, serum, 4383 h
[5] = human; remark: listed apart in the source
[6] = human, serum; remark: listed apart in the source
[7] = human; remark: listed apart in the source
[8] = human; remark: listed apart in the source
[9] = Highest frequency of moderate liver toxicity observed during clinical trials, expressed as a percentage. [column '% BIOL' in source]; details: human
[10] = human; remark: listed apart in the source
[11] = human; remark: listed apart in the source
[12] = human; remark: listed apart in the source
[13] = human; remark: listed apart in the source
[14] = human; remark: listed apart in the source
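Throughout, for Hepatotoxicity (association with vascular disease): count of indexed literature references reporting vascular liver injury in humans, e.g. peliosis hepatitis, hepatic veno-occlusive disease or Budd-Chiari syndrome.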
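Throughout, for Hepatotoxicity (benign tumour): value is a count of indexed literature references citing a benign tumour confirmed by histopathology.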
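Throughout, for Hepatotoxicity (choleostasis): human cholestatic liver injury, shown by histopathology or by peak ALT or AST elevation over alkaline phosphatase ratio below 2, value counts indexed literature reports.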
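Throughout, for Hepatotoxicity (chronic liver disease): chronic liver injury confirmed by histopathology or persistently raised serum aminotransferase activity beyond 6 months, value given as the count of indexed literature references.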
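Throughout, for Hepatotoxicity (cirrhosis): value is a count of indexed literature references reporting cirrhosis confirmed by histopathology.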
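Throughout, for Hepatotoxicity (cytolytic): human cytolytic liver injury, shown by histopathology or by a ratio above 5 of peak ALT or AST elevation to alkaline phosphatase elevation, value counts indexed references.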
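Throughout, for Hepatotoxicity (granulomatous hepatitis): value is a count of indexed literature references reporting granulomatous liver disease confirmed by histopathology.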
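Throughout, for Hepatotoxicity (malignant tumour): malignant tumour confirmed by histopathology, value gives the count of indexed literature references reporting it.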
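Throughout, for Hepatotoxicity (severe hepatitis): human clinical data: severe hepatitis, meaning potentially life-threatening liver failure or clinically observed cases, the value counts how many indexed literature references report it.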
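Throughout, for Hepatotoxicity (steatosis): steatosis confirmed by histopathology, value is the count of indexed references.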

Row | Compound | Hepatotoxicity (acute) [1] | Hepatotoxicity (acute) [2] [%] | Hepatotoxicity (association with vascular disease) [3] | Hepatotoxicity (chronic liver disease) [4] | Hepatotoxicity (cytolytic) [5] | Hepatotoxicity (moderate) [6] | Hepatotoxicity (granulomatous hepatitis) [7] | Hepatotoxicity (cirrhosis) [8] | Hepatotoxicity (moderate) [9] [%] | Hepatotoxicity (steatosis) [10] | Hepatotoxicity (malignant tumour) [11] | Hepatotoxicity (severe hepatitis) [12] | Hepatotoxicity (benign tumour) [13] | Hepatotoxicity (choleostasis) [14] | Hepatotoxicity (acute) ([2]; Liver) [%] | Hepatotoxicity (cytolytic) ([5]; Liver) | Hepatotoxicity (granulomatous hepatitis) ([7]; Liver) | Hepatotoxicity (moderate) ([9]; Liver) [%] | Hepatotoxicity (severe hepatitis) ([12]; Liver) | Hepatotoxicity (choleostasis) ([14]; Liver)
1 | O=C(O)C1=C(C[n+]2ccc(CCS(=O)(=O)[O-])cc2)CS[C@@H]2[C@H](NC(=O)[C@H](NC(=O)c3[nH]cnc3C(=O)O)c3ccccc3)C(=O)N12 [CEFPIMIZOLE] | 0 | 0 | 0 | 0 | 0 | 30 | 0 | 0 | 18.8 | 0 | 0 | 0 | 0 | 0 | – | – | – | – | – | –
2 | CO/N=C(\C(=O)N[C@@H]1C(=O)N2C(C(=O)[O-])=C(C[n+]3ccc(N)n3CCO)CS[C@H]12)c1csc(N)n1 [CEFOSELIS] | 0 | 0 | 0 | 0 | 0 | 33 | 0 | 0 | 25 | 0 | 0 | 0 | 0 | 0 | – | – | – | – | – | –
3 | O=C1NCCN1c1ncc([N+](=O)[O-])s1 [NIRIDAZOLE] | 0 | 0 | 0 | 0 | 0 | 2 | 0 | 0 | 0 | 0 | 0 | 0 | 0 | 0 | – | – | – | – | – | –
4 | CN(C)CCOC(c1ccccc1)c1ccccc1 [DIPHENHYDRAMINE] | 0 | – | 0 | 0 | – | 1 | – | 0 | – | 0 | 0 | – | 0 | – | 0 | 0 | 0 | 1.4 | 0 | 0
5 | O=C1CC2(CCCC2)CC(=O)N1CCCCN1CCN(c2nsc3ccccc23)CC1 [TIOSPIRONE] | 0 | 0 | 0 | 0 | 0 | 1 | 0 | 0 | 7.1 | 0 | 0 | 0 | 0 | 0 | – | – | – | – | – | –
6 | PALIVIZUMAB | 0 | 0 | 0 | 0 | 0 | 1 | 0 | 0 | 3.6 | 0 | 0 | 0 | 0 | 0 | – | – | – | – | – | –
7 | CNC(=O)C[C@@H](N)C(=O)N[C@@H](C(=O)N[C@@H]1C(=O)N2[C@@H]1SC(C)(C)[C@@H]2C(=O)O)c1ccc(O)cc1 [ASPOXICILLIN] | 0 | 0 | 0 | 0 | 0 | 20 | 0 | 0 | 40 | 0 | 0 | 0 | 0 | 0 | – | – | – | – | – | –
8 | N[C@@H](CSCC(=O)O)C(=O)O [CARBOCYSTEINE] | 0 | 0 | 0 | 0 | 0 | 1 | 0 | 0 | 0.8 | 0 | 0 | 0 | 0 | 0 | – | – | – | – | – | –
9 | COC1=C(C(=O)O)N2C(=O)[C@@H](NC(=O)[C@H](N)C3=CCC=CC3)[C@H]2SC1 [CEFROXADINE] | 0 | 0 | 0 | 0 | 0 | 1 | 0 | 0 | 2 | 0 | 0 | 0 | 0 | 0 | – | – | – | – | – | –
10 | CCOc1cc(CC(=O)N[C@@H](CC(C)C)c2ccccc2N2CCCCC2)ccc1C(=O)O [REPAGLINIDE] | 0 | – | 0 | 0 | 0 | 1 | 0 | 0 | – | 0 | 0 | – | 0 | 0 | 0 | – | – | 1.5 | 0 | –
11 | Cc1ncc(CNC(=O)N(CCCl)N=O)c(N)n1 [NIMUSTINE] | 0 | 0 | 0 | 0 | 0 | 2 | 0 | 0 | 3.6 | 0 | 0 | 0 | 0 | 0 | – | – | – | – | – | –
12 | C#C[C@]1(O)CC[C@H]2[C@@H]3CCC4=CCCC[C@@H]4[C@H]3CC[C@@]21C [LYNESTRENOL] | 3 | 0 | 0 | 0 | 0 | 0 | 0 | 0 | 0 | 0 | 0 | 0 | 0 | 3 | – | – | – | – | – | –
13 | O=C(Nc1cccc2c(=O)cc(-c3nnn[nH]3)oc12)c1ccc(OCCCCc2ccccc2)cc1 | 0 | 0 | 0 | 0 | 0 | 1 | 0 | 0 | 2.1 | 0 | 0 | 0 | 0 | 0 | – | – | – | – | – | –
14 | COC(=O)C1=C(C)NC(C)=C(C(=O)O[C@H]2CCN(Cc3ccccc3)C2)[C@H]1c1cccc([N+](=O)[O-])c1 [BARNIDIPINE] | 0 | 0 | 0 | 0 | 0 | 1 | 0 | 0 | 6.5 | 0 | 0 | 0 | 0 | 0 | – | – | – | – | – | –
15 | CC(C)(CNC(N)=O)NCC(O)COC(=O)c1ccccc1F (stereo not given) [FLESTOLOL] | 0 | 0 | 0 | 0 | 0 | 2 | 0 | 0 | 6.7 | 0 | 0 | 0 | 0 | 0 | – | – | – | – | – | –
